The values that follow are results of earlier work, collected in patent US20050025807A1, “Cured porous calcium phosphate material and uses thereof” (NATIONAL INSTITUTE OF ADVANCED INDUSTRIAL SCIENCE AND …, priority 2003, published 2005).

The conditions of this data set: agitation 200 to 300 rpm at 30° C.; calculated by Nernst-Noyes-Whitney formula.

For the compound `CCC1(c2ccccc2)C(=O)NC(=O)NC1=O` [phenobarbitol], the “Thickness of diffusion layer” value is “about 30 microns”.
